The results in this text go back to patent US11311513B2, “Methods, agents, and compositions for the treatment of acute myeloid leukemia” (UNIVERSITY OF CINCINNATI, priority 2017, dated 2022).

Series [1] deals with Tet1 deficient mouse BM progenitor cells transduced with MLL-AF9. As to the kind of experiment: Viability of MLL-AF9-transduced Tet1 deficient BM progenitor cells. Format: cell-based. To be noted: 48 hrs; for cell viability: Tet1 deficient counterpart cells; for viability of cells with induced Tet1 deficiency: conditional Tet1 knockout, polyI:C induced, 500 nM. How it is done:
FIG. 5. […] Gene expression levels are shown. […] ChIP-qPCR assay was carried out 48 hrs after drug treatment. Enrichment of STAT3, STAT5, or IgG at the TET1 promoter region and other regions are shown. […] BM progenitor cells of wild-type or Tet1^−/− mice were retrovirally transduced with MLL-AF9. […] Relative cell viabilities are shown. (m) Cre-Tet1f mouse BM progenitor cells were retrovirally transduced with MLL-AF9. […] Relative cell viability is shown. (n-o) THP-1 (n) and MONOMAC-6 (o) cells were infected with lentivirus of pLenti-puro vector-based Tet1 construct. […] Relative cell viability is shown. *, P<0.05; **, P<0.01, two-tailed t-test. Error bar indicates SD of triplicate experiments.
FIG. 13. […] (a-d) BM progenitor cells of wild-type or Tet1^−/− mice were retrovirally transduced with MLL-AF9. Infected cells were treated with 200 nM JAK/STAT inhibitors individually, including Pacritinib (a), KW-2449 (b), Stattic (c) or sc-355979 (d), for 48 hrs. Relative cell viabilities are shown. (e) Cre-Tet1^fl/fl mouse BM progenitor cells were retrovirally transduced with MLL-AF9. […] Cell viabilities (normalized to non-induced Cre-Tet1^fl/fl treated with DMSO control) are shown. ‘K, P<0.05; ‘K‘K, P<0.01, two-tailed t-test
siRNAs were transfected into MONOMAC-6 cells with Cell Line Nucleofector Kit V following program T-037, using the Amaxa Nucleofector Technology (Amaxa Biosystems, Berlin, Germany). Experiments were performed 48 h after transfection. Retrovirus infection of mouse BM progenitor cells were conducted as described previously with some modifications. Briefly, retrovirus vectors were co-transfected with pCL-Eco packaging vector (IMGENEX, San Diego, Calif.) into HEK293T cells using Effectene Transfection Reagent (Qiagen, Valencia, Calif.) to produce retrovirus. BM cells were harvested from a cohort of 4- to 6-week-old C57BL/6, Tet1^−/−, or Cre-Tet1^fl/fl donor mice after five days of 5-fluorouracil (5-FU) treatment, and primitive hematopoietic progenitor cells were enriched with Mouse Lineage Cell Depletion Kit (Miltenyi Biotec Inc., Auburn, Calif.). An aliquot of enriched hematopoietic progenitor cells was added to retroviral supernatant together with polybrene in cell culture plates, which were centrifuged at 2,000 g for 2 hours at 32° C. (i.e., spinoculation) and then the medium was replaced with fresh media and incubated for 20 hours at 37° C. Next day, the same procedure was repeated once. Infected cells were grown in RPMI 1640 medium containing 10 ng/mL murine recombinant IL-3, 10 ng/mL IL-6, 100 ng/mL murine recombinant SCF (R&D Systems, Minneapolis, Minn.), along with 1.0 mg/ml of G418. Experiments were performed 7 days after infection.
These experiments were conducted as described previously (Jiang, X., et al., Blockade of miR-150 Maturation by MLL-Fusion/MYC/LIN-28 Is Required for MLL-Associated Leukemia, Cancer Cell 22:524-35 (2012); Li, Z., et al., miR-196b directly targets both HOXA9/MEIS1 oncogenes and FAS tumour suppressor in MLL-rearranged leukaemia, Nat Commun 2:688 (2012)) with ApoLive-Glo Multiplex Assay Kit, or CellTiter 96 AQueous Non-Radioactive Cell Proliferation Assay Kit (Promega, Madison, Wis.).

A short description of series [2]: Acute and long-term toxicity profiling in healthy mice. Type of series: in vivo, C57BL/6 mice. As to conditions: for acute (24 hrs) or long-term (200 days) toxicity: 2.5 mg/kg i.p. once per day 10 days, body, spleen, liver weights, WBC, PB and BM lineages; for WBC: 2.5 mg/kg i.p. 10 days, normal range 1.8-10.7; for BA / EO: normal range 0.0-0.2; for MO: normal range 0.0-0.4; for NE: normal range 0.1-2.4; for LY: normal range 0.9-9.3; for RBC: normal range 6.36-9.42; for PLT: normal range 592-2972. How it is done: FIG. 15. […] 24 hrs after the last administration, body weights (a), weights of spleens (b), livers (c), total PB WBC counts (d), BM Mac1^+Gr1^+ (e), Mac1^+Gr1^− (f), Mac1^−Gr1^+ (g), and c-Kit^+ (h) populations were analyzed.
FIG. 16. […] 200 days after the last administration, body weights (a), weights of spleens (b), livers (c), total PB WBC counts (d), BM Mac1^+Gr1^+ (e), Mac1^+Gr1^− (f), Mac1^−Gr1^+ (g), and c-Kit^+ (h) populations were analyzed.

Where [3] appears, read: acute, 24 hrs post last administration.
Where [4] appears, read: long-term, 200 days post last administration.

For `COc1cc(C(c2cc3c(cc2O)OCO3)N2CCCC2)cc(OC)c1OC` (stereo not shown) [NSC-370284, 6-(1-Pyrrolidinyl(3,4,5-trimethoxyphenyl)methyl)-1,3-benzodioxol-5-ol], in series [1], the cell viability result is listed as “no such inhibition” and the “viability of cells with induced Tet1 deficiency” value is given as “no significant effect”. In series [2], the “acute (24 hrs) or long-term (200 days) toxicity” value was “no evidence of either acute or long-term toxicity”. Also, in series [2] (setting [3]), the WBC was found to be 8.35 ± 2.34 K/μl, the BA amounted to 0.05 ± 0.05 K/μl, the MO was found to be 0.22 ± 0.14 K/μl and the NE was 1.67 ± 0.21 K/μl. In series [2] (setting [3]), the LY was found to be 6.74 ± 2.55 K/μl, the RBC came out at 8.55 ± 3.34 M/μl and the PLT is 460.21 ± 42.42 K/μl. In series [2] (setting [4]), this molecule gave a WBC of 10.34 ± 2.19 K/μl, a BA of 0.03 ± 0.02 K/μl, an EO of 0.11 ± 0.01 K/μl and an MO of 0.31 ± 0.03 K/μl. In series [2] (setting [4]), the NE is on record as 2.26 ± 0.54 K/μl, the LY was 7.68 ± 1.55 K/μl, the RBC is given as 7.38 ± 1.7 M/μl and the PLT is 929.62 ± 154.61 K/μl.

As to `CC(C)(C)c1cc(C(c2cc3c(cc2O)OCO3)N2CCOCC2)cc(C(C)(C)C)c1O` (stereo not shown) [UC-514321, 6-{[4-Hydroxy-3,5-bis(2-methyl-2-propanyl)phenyl](4-morpholinyl)methyl}-1,3-benzodioxol-5-ol], in series [1], the cell viability result is given as “no such inhibition” and the “viability of cells with induced Tet1 deficiency” value is on record as “no significant effect”. Also, in series [2], the “acute (24 hrs) or long-term (200 days) toxicity” value is on record as “no evidence of either acute or long-term toxicity”. In series [2] (setting [3]), this molecule came in with a WBC of 8.64 ± 3.68 K/μl, a BA of 0.07 ± 0.05 K/μl, an EO of 0.14 ± 0.12 K/μl and an MO of 0.27 ± 0.1 K/μl. In series [2] (setting [3]), the NE amounted to 1.94 ± 0.56 K/μl, the LY is 6.54 ± 2.7 K/μl, the RBC was found to be 9.54 ± 0.74 M/μl and the PLT came out at 559.43 ± 116.9 K/μl. Moreover, in series [2] (setting [4]), the WBC worked out at 11.89 ± 1.64 K/μl, the BA is given as 0.07 ± 0.04 K/μl, the EO amounted to 0.1 ± 0.01 K/μl and the MO came to 0.25 ± 0.05 K/μl. In series [2] (setting [4]), this molecule displayed an NE of 2.11 ± 0.44 K/μl, an LY of 8.55 ± 1.18 K/μl, an RBC of 7.07 ± 0.42 M/μl and a PLT of 681.56 ± 402.64 K/μl.
